# From article PMC6379498, “Radiosynthesis and in vivo evaluation of ^11C-labeled BMS-193885 and its desmethyl analog as PET tracers for neuropeptide Y1 receptors” (EJNMMI Radiopharmacy and Chemistry, 2019)
# Experiments:
# [1] = Metabolite analysis of mouse plasma after co-injection of [^11C]1 with 1; assay type: in vivo, mice; conditions: 30 min after co-injection of [^11C]1 with 1 (50 mg/kg), radio- and UV-HPLC
# Description: In addition, the effects of co-injection of [^11C]1 with 1 on the results of metabolite analyses of plasma were investigated. [^11C]1 (26-30 MBq/0.38-0.45 nmol) and a solution of 1 (50 mg/kg b.w. in water containing 20% Tween 80) were intravenously co-injected into mice (aged 7-9 weeks, weighing 35-39 g, n = 4). Mice were euthanized by cervical dislocation at 30 min post-injection. Blood samples taken by heart puncture were collected into heparinized syringes. The samples were centrifuged at 13,000×g (Model 5500, KUBOTA, Tokyo, Japan) for 3 min at 4 °C to obtain plasma (0.2 mL). Plasma samples were added to equivalent volumes of acetonitrile, and mixtures were centrifuged at 20,000×g for 2 min. The precipitate was added to 0.2 mL of acetonitrile, and this mixture was centrifuged at 20,000×g for 2 min to obtain the supernatant. The mixed supernatant was added to 0.2 mL of water, and this solution was loaded into the injector loop. HPLC analysis was performed using the abovementioned radio-HPLC system for metabolite analysis, and also a […] column (5 μm mesh, 10 mm i.d. × 150 mm length; YMC, Kyoto, Japan). Elution was performed using a mixture of 90% acetonitrile solution and 0.1 mol/L ammonium acetate solution (45:55, vol./vol.). The flow rate was 4 mL/min.
# [2] = Analysis of metabolites in mouse plasma (radio-HPLC); assay type: in vivo, mice; conditions: for Percentage of intact tracer in plasma: mouse plasma, 30 min post-injection, radio-HPLC, n=4; for Metabolism in vivo (mouse plasma): within 30 min post-injection
# Description: [^11C]1 (37–56 MBq/0.73–0.95 nmol) or [^11C]2 (46–61 MBq/1.1–1.5 nmol) was intravenously injected into mice (aged 7–9 weeks, weighing 33–43 g, n = 4). Mice were euthanized by cervical dislocation at 30 min post-injection. Blood samples taken by heart puncture were collected into heparinized syringes. Samples were centrifuged at 13,000×g (Model 5500, KUBOTA, Tokyo, Japan) for 3 min at 4 °C to obtain plasma (0.1–0.2 mL). Plasma samples were added to equivalent volumes of 1 mol/L ammonium acetate solution. Samples were directly loaded into the injector loop, and analyzed using the combination of column-switching HPLC and on-line solid-phase extraction as a modification of the previously described procedures (Chitneni et al. [2008]; Gillings [2009]; Greuter et al. [2005]; Hilton et al. [2000]; Kawamura et al. [2013]). HPLC analysis was performed using the radio-HPLC system for metabolite analysis mentioned in the ‘General’ section above, and also using a Cadenza HS-C18 column (3 μm mesh, 10 mm i.d. × 150 mm length; Imtakt, Kyoto, Japan) fitted with a Cadenza HS-C18 guard cartridge (3 μm mesh, 10 mm i.d. × 8 mm length; Imtakt). Elution was performed using a 0.1 mol/L ammonium acetate solution for 3 min after loading, a mixture of 90% acetonitrile solution and water (0:100 to 40:60, vol./vol.) from 3 to 4 min after loading, and then a mixture of 90% acetonitrile solution and water (40:60, vol./vol.) from 4 to 12 min after loading. The flow rate was 4 mL/min. The retention times of [^11C]1 and [^11C]2 were 10.0 and 10.5 min, respectively.
SMILES,Metabolites found in mouse plasma [1],Percentage of intact tracer in plasma [2] [%],Metabolism in vivo (mouse plasma) [2]
COC(=O)C1=C(C)NC(C)=C(C(=O)OC)C1c1cccc(NC(=O)NCCCN2CCC(c3cccc(O[11CH3])c3)CC2)c1 [[^11C]1],rapidly metabolized into its unlabeled desmethyl analog 2 and radiolabeled components,11.8 ± 2.5,rapidly metabolized
COC(=O)C1=C(C)NC(C)=C(C(=O)OC)C1c1cccc(N[11C](=O)NCCCN2CCC(c3cccc(O)c3)CC2)c1 [[^11C]2],–,19.9 ± 2.4,rapidly metabolized
